ChEMBL document CHEMBL1287665, “Design, synthesis and inhibitory effect of pentapeptidyl chloromethyl ketones on proteinase K” (Bioorg Med Chem, 2010)
The source made the active and inactive calls.

Experiments:
Details in all cases: Parengyodontium album
[1] = biological target: Proteinase K (Engyodontium album) (UniProt P06873); assay: Inhibition of Engyodontium album proteinase K proteolytic activity in human HeLa cell lysate using beta-actin primer/probes of TaqMan gene expression Cells-to-CT kit at 0.5 mM after 60 mins by qRT-PCR analysis; assay type: cell-free
[2] = biological target: Proteinase K (Engyodontium album) (UniProt P06873); assay: Inhibition of Engyodontium album proteinase K proteolytic activity assessed as digestion of bovine serum albumin at 0.75 mM after 10 mins using coomassie blue staining by protein gel analysis
[3] = biological target: Proteinase K (Engyodontium album) (UniProt P06873); assay: Inhibition of Engyodontium album proteinase K proteolytic activity assessed as concentration required to obtain cycle threshold 26 using TaqMan gene expression Cells-to-CT kit after 60 mins by qRT-PCR analysis
[4] = biological target: Proteinase K (Engyodontium album) (UniProt P06873); assay: Inhibition of Engyodontium album proteinase K proteolytic activity in human HeLa cell lysate using beta-actin primer/probes of TaqMan gene expression Cells-to-CT kit at 0.10 mM after 60 mins by qRT-PCR analysis; assay type: cell-free
[5] = biological target: Proteinase K (Engyodontium album) (UniProt P06873); assay: Inhibition of Engyodontium album proteinase K proteolytic activity assessed as digestion of bovine serum albumin at 0.25 mM after 10 mins using coomassie blue staining by protein gel analysis
[6] = biological target: Proteinase K (Engyodontium album) (UniProt P06873); assay: Ratio of compound to MeO-Suc-AAAPV-CH2Cl for inhibition of Engyodontium album proteinase K proteolytic activity assessed as concentration required to obtain cycle threshold 26 using TaqMan gene expression Cells-to-CT kit after 60 mins by RT-PCR analysis

Proteinase K (Engyodontium album), sequence (P06873 whole entry): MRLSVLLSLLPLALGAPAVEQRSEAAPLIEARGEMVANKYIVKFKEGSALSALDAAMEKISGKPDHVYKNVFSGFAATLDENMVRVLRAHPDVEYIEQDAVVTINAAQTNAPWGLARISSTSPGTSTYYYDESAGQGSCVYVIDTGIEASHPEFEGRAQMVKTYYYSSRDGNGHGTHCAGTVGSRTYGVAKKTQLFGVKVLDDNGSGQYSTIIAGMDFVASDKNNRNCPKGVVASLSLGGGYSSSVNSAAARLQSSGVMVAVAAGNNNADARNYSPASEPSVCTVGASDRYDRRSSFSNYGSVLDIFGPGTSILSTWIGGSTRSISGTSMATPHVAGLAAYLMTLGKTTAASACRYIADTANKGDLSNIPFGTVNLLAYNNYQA

inhibition [1] | inhibition [2] | Activity [3] [mM] | inhibition [4] | inhibition [5] | Ratio [6] | Structure (SMILES)
Active | inactive | – | – | – | – | COC(=O)CCC(=O)N[C@@H](C)C(=O)N[C@H](C)C(=O)N[C@@H](C)C(=O)N1CCC[C@H]1C(=O)N[C@@H](C(=O)CCl)C(C)C
– | – | 0.1 | Active | Active | 7.5 | COC(=O)CCC(=O)N[C@@H](C)C(=O)N[C@H](C)C(=O)N[C@@H](C)C(=O)N1CCC[C@H]1C(=O)N[C@H](Cc1ccccc1)C(=O)CCl
